This is an account of results in publication PMC6412051 (Scientific Reports, 2019).

Data set [1] in a line: Formation/stability constant by continuous variation (Job's) method. The format is physicochemical. The following applies: equimolar solutions in methanol, room temperature. The source says:
In Fig. 1, the extrapolated value at the point of cross section on the Job’s curve corresponds to the total absorbance of the complex, if the complex formation had been completed. Since the complex is dissociative in nature, the actual absorbance is somewhat lower than the absorbance […].
The colour of the solution changed from brown to orange. Wavelength of maximum absorbance was noted against a blank, which appeared at 296 nm. All the measurements were made at 296 nm.

The conditions of data set [2]: oral administration; cited from earlier work.

Turning to [Ru(p-cymene)Cl(SPR)], the “formation constant of the complex (log K)” value in data set [1] is 5.45. `CCN1CCCC1CNC(=O)c1cc(S(N)(=O)=O)ccc1OC` (centres unmarked) [SPR, Sulpiride]: the bioavailability result in data set [2] is given as “approximately 30%”.
